Test results taken from patent US20060069132A1, “Azolecarboxamide herbicides” (priority 2004, published 2006).

Key:
[1] = system: rice; assay: Test B pre-/postemergence herbicide test; assay type: in vivo, Oryza sativa; details: for Plant response rating, Rice / Rice plant response rating (0 to 100 scale): preemergence
Outline: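 Formulation: non-phytotoxic solvent mix with surfactant. Timing: preemergence on seed and postemergence on 2–18 cm plants, applied concurrently. Readout after 13–15 d greenhouse: visual 0–100 control rating against controls.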

[2] = system: goosegrass; assay: Test C pre-/postemergence herbicide test; assay type: in vivo, Eleusine indica; details: for Goosegrass plant response rating: Preemergence, scale 0 to 100, 0 no effect, 100 complete control
Outline: (§1)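 Pre- and postemergence application, solvent/surfactant formulation; post at 1- to 4-leaf stage (2–18 cm). Greenhouse 12–14 d. Visual rating vs controls, 0 = no effect, 100 = complete control.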

[3] = system: eastern black nightshade; assay: Test C pre-/postemergence herbicide test; assay type: in vivo, Solanum ptycanthum; details: for Nightshade plant response rating: Preemergence, scale 0 to 100, 0 no effect, 100 complete control
Outline: as §1

[4] = system: yellow nutsedge; assay: Test C pre-/postemergence herbicide test; assay type: in vivo, Cyperus esculentus; details: for Nutsedge, Yellow plant response rating: Preemergence, scale 0 to 100, 0 no effect, 100 complete control
Outline: as §1

[5] = system: soybean; assay: Test C pre-/postemergence herbicide test; assay type: in vivo, Glycine max; details: for Soybean plant response rating: Preemergence, scale 0 to 100, 0 no effect, 100 complete control
Outline: as §1

[6] = system: rice; assay: Test C flooded paddy test; assay type: in vivo, Oryza sativa; details: for Plant response rating, Rice: 500 g ai/ha, visual rating after 12 to 14 days
Outline: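 Postemergence sprays applied to plants 2 to 18 cm tall (1- to 4-leaf stage); paddy species grown to 2-leaf stage under flooding. After 12 to 14 days in greenhouse, visual rating versus untreated controls on 0–100 scale (0 no effect, 100 complete control).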

[7] = system: smallflower umbrella sedge; assay: Test C flooded paddy test; assay type: in vivo, Cyperus difformis; details: for Plant response rating, Sedge, Umbrella: 500 g ai/ha, visual rating after 12 to 14 days
[8] = 125 g ai/ha, scale 0 (no effect) to 100 (complete control), visual, 12 to 14 days, preemergence
[9] = 250 g ai/ha, scale 0 to 100 (0 no effect, 100 complete control), visual, 12 to 14 days, preemergence
[10] = 62 g ai/ha, scale 0 to 100 (0 no effect, 100 complete control)
[11] = 125 g ai/ha, scale of 0 to 100, 0 is no effect, 100 is complete control
[12] = 250 g ai/ha, scale of 0 to 100, 0 is no effect, 100 is complete control
[13] = scale 0 to 100 (0 no effect, 100 complete control)
[14] = 125 g ai/ha, 0 = no effect, 100 = complete control
[15] = 62 g ai/ha, preemergence, scale 0 to 100
[16] = 250 g ai/ha, scale 0-100, preemergence
[17] = 125 g ai/ha, scale 0 to 100 (0 no effect, 100 complete control)
[18] = 500 g ai/ha, scale 0 to 100 (0 no effect, 100 complete control), visual, 12 to 14 days, preemergence

| SMILES | Plant response rating, Goosegrass [2, 8] | Goosegrass plant response rating ([2]; 500 g ai/ha) | Plant response rating, Nightshade [3, 8] | Nightshade plant response rating ([3]; 500 g ai/ha) | Plant response rating, Nutsedge, Yellow [4, 8] | Nutsedge, Yellow plant response rating ([4]; 500 g ai/ha) | Plant response rating, Soybean [5, 8] | Soybean plant response rating ([5]; 500 g ai/ha) | Rice plant response rating [6, 10] | Rice plant response rating [6, 12] | Plant response rating, Rice [6, 13] | Sedge, Umbrella plant response rating [7, 10] | Sedge, Umbrella plant response rating [7, 12] | Plant response rating, Sedge, Umbrella [7, 13] | Rice plant response rating (0 to 100 scale) [1, 14] | Plant response rating, Goosegrass [2, 15] | Plant response rating, Goosegrass [2, 16] | Plant response rating, Nightshade [3, 15] | Plant response rating, Nightshade [3, 16] | Plant response rating, Nutsedge, Yellow [4, 15] | also measured |
| --- | --- | --- | --- | --- | --- | --- | --- | --- | --- | --- | --- | --- | --- | --- | --- | --- | --- | --- | --- | --- | --- |
| C=CCn1nc(C(C)(C)C)cc1C(=O)Nc1cccc(C(=O)NCC)c1 [Compound 56] | 85 | 95 | 95 | 95 | 0 | 20 | 0 | 15 | 0 | 25 | 35 | 45 | 90 | 90 | – | – | – | – | – | – | Rice plant response rating ([1]; Preemergence, 500 g ai/ha, scale 0 to 100): 70; Plant response rating, Rice ([1]; 125 g ai/ha, 0 to 100 scale, 0 is no effect, 100 is complete control): 40; Plant response rating (0 = no effect, 100 = complete control), Goosegrass ([2]; 62 g ai/ha, preemergence): 60; Plant response rating, Goosegrass [2, 9]: 90; Plant response rating (0 = no effect, 100 = complete control), Nightshade ([3]; 62 g ai/ha, preemergence): 90; Plant response rating, Nightshade [3, 9]: 95; Plant response rating (0 = no effect, 100 = complete control), Nutsedge, Yellow ([4]; 62 g ai/ha, preemergence): 0; Plant response rating, Nutsedge, Yellow [4, 9]: 0; Plant response rating (0 = no effect, 100 = complete control), Soybean ([5]; 62 g ai/ha, preemergence): 0; Plant response rating, Soybean [5, 9]: 10; Rice plant response rating [6, 11]: 15; Sedge, Umbrella plant response rating [7, 11]: 85 |
| CCNC(=O)c1ccc(F)c(NC(=O)c2cn(C(C)(C)C)nc2CC)c1 [Compound 193] | 80 | 95 | 50 | 100 | 0 | 60 | 30 | 100 | 25 | 70 | 75 | 75 | 80 | 85 | 80 | 60 | 80 | 0 | 85 | 0 | Plant response rating, Rice ([1]; 500 g ai/ha, visual rating 0-100, 0 no effect, 100 complete control): 100; Plant response rating, Nutsedge, Yellow [4, 16]: 10; Plant response rating, Soybean [5, 15]: 30; Plant response rating, Soybean [5, 16]: 50; Rice plant response rating [6, 17]: 50; Sedge, Umbrella plant response rating [7, 17]: 75 |
| CCn1nc(C(C)(C)C)cc1C(=O)Nc1cc(C(=O)N(C)OC)ccc1F [Compound 244] | 95 | – | 100 | – | 0 | – | – | – | 40 | 75 | 75 | 20 | 70 | 85 | 60 | 70 | 100 | 100 | 100 | 0 | Plant response rating, Rice ([1]; 500 g ai/ha, visual rating, 0 = no effect, 100 = complete control): 80; Plant response rating, Goosegrass [2, 18]: 100; Plant response rating, Nightshade [3, 18]: 100; Plant response rating, Nutsedge, Yellow [4, 16]: 0; Plant response rating, Nutsedge, Yellow [4, 18]: 0; Plant response rating, Soybean [5, 15]: 0; Plant response rating, Soybean [5, 16]: 10; Plant response rating, Soybean [5, 18]: 15; Rice plant response rating [6, 17]: 70; Sedge, Umbrella plant response rating [7, 17]: 65 |
